Measured values from ChEMBL document CHEMBL2086273, “Significant activity of ecdysteroids on the resistance to doxorubicin in mammalian cancer cells expressing the human ABCB1 transporter” (J Med Chem, 2012).

Columns and labels:
Type in all cases: cell-based
[1] = target: T1, ATP-dependent translocase ABCB1 (Homo sapiens, UniProt P08183); test: Inhibition of human ABCB1 expressed in mouse L5178 cells assessed as 95% inhibition of cell proliferation at compound-doxorubicin ratio of 20.4:1 after 48 hrs by MTT assay; conditions: l5178, 48 h
T1 sequence (P08183 whole entry): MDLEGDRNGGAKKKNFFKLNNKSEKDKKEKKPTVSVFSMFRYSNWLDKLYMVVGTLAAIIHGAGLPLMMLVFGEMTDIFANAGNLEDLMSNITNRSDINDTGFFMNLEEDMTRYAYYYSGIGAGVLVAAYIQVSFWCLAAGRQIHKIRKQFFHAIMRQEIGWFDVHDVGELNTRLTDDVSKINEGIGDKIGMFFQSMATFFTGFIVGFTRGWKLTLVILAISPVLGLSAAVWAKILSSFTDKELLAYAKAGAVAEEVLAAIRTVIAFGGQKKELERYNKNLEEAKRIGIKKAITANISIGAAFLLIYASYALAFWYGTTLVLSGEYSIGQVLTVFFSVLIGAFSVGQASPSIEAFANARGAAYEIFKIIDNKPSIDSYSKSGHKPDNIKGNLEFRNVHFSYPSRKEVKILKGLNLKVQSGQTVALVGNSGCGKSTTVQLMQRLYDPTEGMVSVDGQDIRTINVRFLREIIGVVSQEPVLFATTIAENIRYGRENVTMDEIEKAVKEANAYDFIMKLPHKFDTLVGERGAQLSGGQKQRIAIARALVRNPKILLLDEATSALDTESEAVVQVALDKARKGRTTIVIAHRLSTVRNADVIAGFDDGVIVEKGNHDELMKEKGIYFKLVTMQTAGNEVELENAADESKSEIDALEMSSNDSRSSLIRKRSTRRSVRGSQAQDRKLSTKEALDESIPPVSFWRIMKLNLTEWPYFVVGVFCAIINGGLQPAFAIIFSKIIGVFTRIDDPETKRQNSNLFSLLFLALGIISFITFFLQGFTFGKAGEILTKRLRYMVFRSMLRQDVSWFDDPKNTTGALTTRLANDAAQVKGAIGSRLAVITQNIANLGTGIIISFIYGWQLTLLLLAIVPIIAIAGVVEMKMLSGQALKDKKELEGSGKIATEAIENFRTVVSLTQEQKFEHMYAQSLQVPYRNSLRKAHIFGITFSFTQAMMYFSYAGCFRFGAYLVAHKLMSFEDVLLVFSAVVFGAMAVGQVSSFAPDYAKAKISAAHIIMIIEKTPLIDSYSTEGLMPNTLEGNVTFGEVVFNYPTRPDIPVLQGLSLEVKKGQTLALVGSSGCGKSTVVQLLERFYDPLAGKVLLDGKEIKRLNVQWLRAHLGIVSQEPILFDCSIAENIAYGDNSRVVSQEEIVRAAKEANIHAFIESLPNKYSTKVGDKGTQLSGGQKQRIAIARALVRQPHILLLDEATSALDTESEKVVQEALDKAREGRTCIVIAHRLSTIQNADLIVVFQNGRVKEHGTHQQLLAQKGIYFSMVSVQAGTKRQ

[2] = target: T1, ATP-dependent translocase ABCB1; test: Inhibition of human ABCB1 expressed in mouse L5178 cells assessed as 75% inhibition of cell proliferation at compound-doxorubicin ratio of 20.4:1 after 48 hrs by MTT assay; conditions: l5178, 48 h
[3] = target: T1, ATP-dependent translocase ABCB1; test: Inhibition of human ABCB1 pump expressed in mouse L5178 cells assessed as fluorescence activity ratio at 20 uM for 10 mins by flow cytometry relative to control; conditions: l5178, 10 min
[4] = target: T1, ATP-dependent translocase ABCB1; test: Inhibition of human ABCB1 expressed in mouse L5178 cells assessed as 50% inhibition of cell proliferation at compound-doxorubicin ratio of 20.4:1 after 48 hrs by MTT assay; conditions: l5178, 48 h
[5] = target: T1, ATP-dependent translocase ABCB1; test: Inhibition of human ABCB1 expressed in mouse L5178 cells assessed as 75% inhibition of cell proliferation at compound-doxorubicin ratio of 40.8:1 after 48 hrs by MTT assay; conditions: l5178, 48 h
[6] = target: T1, ATP-dependent translocase ABCB1; test: Inhibition of human ABCB1 expressed in mouse L5178 cells assessed as 50% inhibition of cell proliferation at compound-doxorubicin ratio of 40.8:1 after 48 hrs by MTT assay; conditions: l5178, 48 h
[7] = target: T1, ATP-dependent translocase ABCB1; test: Inhibition of human ABCB1 expressed in mouse L5178 cells assessed as 95% inhibition of cell proliferation at compound-doxorubicin ratio of 40.8:1 after 48 hrs by MTT assay; conditions: l5178, 48 h
[8] = target: T1, ATP-dependent translocase ABCB1; test: Inhibition of human ABCB1 expressed in mouse L5178 cells assessed as 75% inhibition of cell proliferation at compound-doxorubicin ratio of 81.5:1 after 48 hrs by MTT assay; conditions: l5178, 48 h
[9] = target: T1, ATP-dependent translocase ABCB1; test: Inhibition of human ABCB1 expressed in mouse L5178 cells assessed as 50% inhibition of cell proliferation at compound-doxorubicin ratio of 81.5:1 after 48 hrs by MTT assay; conditions: l5178, 48 h
[10] = target: T1, ATP-dependent translocase ABCB1; test: Inhibition of human ABCB1 expressed in mouse L5178 cells assessed as 95% inhibition of cell proliferation at compound-doxorubicin ratio of 81.5:1 after 48 hrs by MTT assay; conditions: l5178, 48 h

| Structure (SMILES) | fractional inhibitory concentration index (FICI) [1] | fractional inhibitory concentration index (FICI) [2] | Ratio [3] | fractional inhibitory concentration index (FICI) [4] | fractional inhibitory concentration index (FICI) [5] | fractional inhibitory concentration index (FICI) [6] | fractional inhibitory concentration index (FICI) [7] | fractional inhibitory concentration index (FICI) [8] | fractional inhibitory concentration index (FICI) [9] | fractional inhibitory concentration index (FICI) [10] |
| --- | --- | --- | --- | --- | --- | --- | --- | --- | --- | --- |
| CC(C)(O)CC[C@H]1OC(C)(C)O[C@]1(C)[C@H]1CC[C@@]2(O)C3=CC(=O)[C@@H]4C[C@@H](O)[C@@H](O)C[C@]4(C)[C@H]3CC[C@]12C | 0.35 | 0.54 | 1.53 | 0.84 | – | – | – | – | – | – |
| CC(C)(O)CC[C@@H](O)[C@](C)(O)[C@H]1CC[C@@]2(O)C3=CC(=O)[C@]4(O)C[C@@H](O)[C@@H](O)C[C@]4(C)[C@H]3CC[C@]12C [POLYPODINE B] | 0.58 | 0.8 | 0.77 | 1.11 | – | – | – | – | – | – |
| CC(C)(O)CC[C@@H](O)[C@](C)(O)[C@H]1CC[C@@]2(O)C3=CC(=O)[C@@H]4C[C@@H](O)CC[C@]4(C)[C@H]3CC[C@]12C | – | – | 0.55 | – | 1.48 | 1.05 | 2.26 | – | – | – |
| CC(C)CC[C@H]1OC(C)(C)O[C@]1(C)[C@H]1CC[C@@]2(O)C3=CC(=O)[C@@H]4C[C@H]5OC(C)(C)O[C@H]5C[C@]4(C)C3=CC[C@]12C | 0.1 | 0.14 | 41.15 | 0.19 | – | – | – | – | – | – |
| CC(=O)O[C@H]1C[C@@]2(C)[C@@H](C[C@H]1OC(C)=O)C(=O)C=C1[C@@H]2CC[C@]2(C)[C@@H]([C@@](C)(O)[C@@H](CCC(C)(C)OC(C)=O)OC(C)=O)CC[C@@]12O | 0.13 | 0.29 | 8.55 | 0.73 | – | – | – | – | – | – |
| C=C(CCCC(C)(C)O)[C@H]1CC[C@@]2(O)C3=CC(=O)[C@@H]4C[C@@H](O)[C@@H](O)[C@@H](O)[C@]4(C)[C@H]3CC[C@]12C | 0.95 | 0.86 | 1.58 | 0.79 | – | – | – | – | – | – |
| CC(C)(O)CC[C@@H](O)[C@](C)(O)[C@H]1CC[C@@]2(O)C3=CC(=O)[C@@H]4C[C@@H](O)[C@@H](O)C[C@]4(C)[C@H]3CC[C@]12C [20-HYDROXYECDYSONE] | 2.04 | 2.02 | 1.76 | 2 | – | – | – | – | – | – |
| CC(=O)O[C@H]1CC[C@@]2(C)[C@@H](C1)C(=O)C=C1[C@@H]2CC[C@]2(C)[C@@H]([C@H](C)[C@@H](CCC(C)(C)OC(C)=O)OC(C)=O)CC[C@@]12O | 0.14 | 0.23 | 25.07 | 0.41 | – | – | – | – | – | – |
| CC(C)(O)CC[C@@H](O)[C@](C)(O)[C@H]1CC[C@@]2(O)C3=CC(=O)[C@@H]4C[C@@H](O)[C@@H](O)C[C@]4(C)[C@H]3[C@H](O)C[C@]12C [TURKESTERONE] | – | – | 0.93 | – | – | – | – | 4.53 | 5.19 | 4.2 |
| CC(C)(O)CC[C@@H](O)[C@](C)(O)[C@H]1CC[C@@]2(O)C3=CC(=O)[C@@]4(O)C[C@@H](O)CC[C@]4(C)[C@H]3CC[C@]12C | – | – | 1.21 | – | – | – | – | 0.45 | 0.78 | 0.27 |
| CC(C)CC[C@H]1OC(C)(C)O[C@]1(C)[C@H]1CC[C@@]2(O)C3=CC(=O)[C@@H]4C[C@H]5OC(C)(C)O[C@H]5C[C@]4(C)[C@H]3[C@H](O)C[C@]12C | 0.12 | 0.14 | 46.49 | 0.18 | – | – | – | – | – | – |
| CC(C)(O)CC[C@H]1OC(C)(C)O[C@]1(C)[C@H]1CC[C@@]2(O)C3=CC(=O)[C@]4(O)C[C@@H](O)[C@@H](O)C[C@]4(C)[C@H]3CC[C@]12C | – | – | 1.8 | – | – | – | – | 0.21 | 0.63 | 0.11 |
| CC(C)CC[C@H]1OC(C)(C)O[C@]1(C)[C@H]1CC[C@@]2(O)C3=CC(=O)[C@@H]4C[C@@H](O)[C@@H](O)C[C@]4(C)[C@H]3[C@H](O)C[C@]12C | 0.13 | 0.25 | 1.93 | 0.52 | – | – | – | – | – | – |
| CC(C)(O)CC[C@H]1OC(C)(C)O[C@]1(C)[C@H]1CC[C@@]2(O)C3=CC(=O)[C@@H]4C[C@H]5OC(C)(C)O[C@H]5[C@@H](O)[C@]4(C)[C@H]3CC[C@]12C | 0.24 | 0.49 | 2.53 | 1.23 | – | – | – | – | – | – |
| CC(C)(O)CC[C@H]1OC(C)(C)O[C@]1(C)[C@H]1CC[C@@]2(O)C3=CC(=O)[C@@H]4C[C@@H](O)[C@H]5OC(C)(C)O[C@H]5[C@]4(C)[C@H]3CC[C@]12C | 0.28 | 0.42 | 2.43 | 0.66 | – | – | – | – | – | – |
| CC1(CC[C@H]2OC(C)(C)O[C@]2(C)[C@H]2CC[C@@]3(O)C4=CC(=O)[C@@H]5C[C@H]6OC(C)(C)O[C@H]6C[C@]5(C)[C@H]4CC[C@]23C)COC(C)(C)O1 (stereo not given in full) | 0.12 | 0.16 | 24.39 | 0.23 | – | – | – | – | – | – |
| CC[C@H](C[C@H]1OC(C)(C)O[C@]1(C)[C@H]1CC[C@@]2(O)C3=CC(=O)[C@@H]4C[C@H]5OC(C)(C)O[C@H]5C[C@]4(C)[C@H]3CC[C@]12C)C(C)(C)O | 0.068 | 0.11 | 26.53 | 0.19 | – | – | – | – | – | – |
| CC(=O)O[C@H](CCC(C)(C)O)[C@](C)(O)[C@H]1CC[C@@]2(O)C3=CC(=O)[C@@H]4C[C@@H](O)CC[C@]4(C)[C@H]3CC[C@]12C | – | – | 1.21 | – | – | – | – | 0.66 | 1.03 | 0.44 |
| C[C@H]([C@H](O)CCC(C)(C)O)[C@H]1CC[C@@]2(O)C3=CC(=O)[C@@H]4C[C@@H](O)[C@@H](O)C[C@]4(C)[C@H]3CC[C@]12C [ECDYSONE] | – | – | 1.38 | – | – | – | – | 4.89 | 2.31 | 12.16 |
| C[C@H]([C@H](O)CCC(C)(C)O)[C@H]1CC[C@@]2(O)C3=CC(=O)[C@@H]4C[C@@H](O)CC[C@]4(C)[C@H]3CC[C@]12C | – | – | 0.94 | – | – | – | – | 1.27 | 2.05 | 0.81 |
| CC(C)(O)CC[C@H]1OC(C)(C)O[C@]1(C)[C@H]1CC[C@@]2(O)C3=CC(=O)[C@@H]4C[C@@H](O)CC[C@]4(C)[C@H]3CC[C@]12C | 0.091 | 0.28 | 7.01 | 0.88 | – | – | – | – | – | – |
| CC(=O)O[C@H]1CC[C@@]2(C)[C@@H](C1)C(=O)C=C1[C@@H]2CC[C@]2(C)[C@@H]([C@H](C)[C@@H](CCC(C)(C)O)OC(C)=O)CC[C@@]12O | 0.5 | 0.86 | 0.97 | 1.5 | – | – | – | – | – | – |
| CC1(C)CC[C@H]([C@](C)(O)[C@H]2CC[C@@]3(O)C4=CC(=O)[C@@H]5C[C@@H](O)[C@@H](O)C[C@]5(C)[C@H]4CC[C@]23C)O1 [SHIDASTERONE] | – | – | 0.88 | – | – | – | – | 0.32 | 1.44 | 0.096 |
| CC(C)CC[C@@H](O)[C@](C)(O)[C@H]1CC[C@@]2(O)C3=CC(=O)[C@@H]4C[C@@H](O)[C@@H](O)C[C@]4(C)[C@H]3CC[C@]12C [PONASTERONE A] | – | – | 1.26 | – | – | – | – | 0.78 | 1.41 | 0.44 |
| CC(C)(O)CC[C@@H](O)[C@](C)(O)[C@H]1CC[C@@]2(O)C3=CC(=O)[C@H]4C[C@@H](O)C[C@@H](O)[C@]4(C)[C@H]3CC[C@]12C | 1.97 | 1.7 | 0.68 | 2.48 | – | – | – | – | – | – |
